{"source": "patent US20120083471A1", "about": "“Novel Compounds, Pharmaceutical Compositions Containing Same, Methods of Use for Same, and Methods for Preparing Same” (priority 2008, published 2012)", "key": {"DIO mice [1]": {"tested_on": "DIO mice", "assay": "Serum chemistry and Oil Red O liver histology of 16 d treated DIO mice", "type": "in vivo, mouse", "protocol": "For acute studies, 6 DIO or lean mice were treated with a single dose of FSG67 (20 mg/kg, i.p.) approximately 3 hrs past lights-on. Animal weights and food consumption were measured 18 h after treatment. Following euthanization, the hypothalmuses were harvested to measure orexigenic and anorexigenic neuropeptide gene expression. In the chronic studies, DIO mice, 4-10 animals per group, were treated daily with FSG67 (5 mg/kg, i.p.) or with RMPI vehicle for the days indicated. Body weight and food intake were measured daily. In one study, a cohort of mice was pair-fed with amounts consumed by the FSG67-treated animals and mice were monitored with indirect calorimetry (Oxymax Equal Flow System®, Columbus Instruments, Columbus, Ohio). Measurements of VO2 (ml/kg/hr) and VCO2 (ml/kg/hr) were performed and recorded every 15 min. The respiratory exchange ratio (RER) was calculated by Oxymax software, version 5.9, and is defined as ratio of VCO2 to VO2 33. After completion of the treatment course, animals were euthanized by CO2 inhalation 4 hrs following the final dose of FSG67. Tissues were harvested immediately for RNA extraction; serum was collected and analyzed for glucose, cholesterol, and triglyceride measurements (Bioanalytics, Gaithersburg, Md.). Fresh liver tissue was snap frozen in liquid N2, sectioned, and stained with hematoxylin and Oil Red O to visualize triglyceride droplets.\nConsistent with the systemic reduction in adiposity, GPAT inhibition reversed hepatic steatosis in DIO mice. […] Cholesterol levels remained unchanged (FIG. 14d). The resolution of the hepatic steatosis in FSG67 treated mice may have contributed to the normalization of blood glucose levels."}, "mtGPAT1": {"target": "T1, mtGPAT1 (Mus musculus, UniProt Q61586)", "T1 construct": "from tissue; host or cells: mitochondrial preparation", "T1 sequence (Q61586 1-827)": "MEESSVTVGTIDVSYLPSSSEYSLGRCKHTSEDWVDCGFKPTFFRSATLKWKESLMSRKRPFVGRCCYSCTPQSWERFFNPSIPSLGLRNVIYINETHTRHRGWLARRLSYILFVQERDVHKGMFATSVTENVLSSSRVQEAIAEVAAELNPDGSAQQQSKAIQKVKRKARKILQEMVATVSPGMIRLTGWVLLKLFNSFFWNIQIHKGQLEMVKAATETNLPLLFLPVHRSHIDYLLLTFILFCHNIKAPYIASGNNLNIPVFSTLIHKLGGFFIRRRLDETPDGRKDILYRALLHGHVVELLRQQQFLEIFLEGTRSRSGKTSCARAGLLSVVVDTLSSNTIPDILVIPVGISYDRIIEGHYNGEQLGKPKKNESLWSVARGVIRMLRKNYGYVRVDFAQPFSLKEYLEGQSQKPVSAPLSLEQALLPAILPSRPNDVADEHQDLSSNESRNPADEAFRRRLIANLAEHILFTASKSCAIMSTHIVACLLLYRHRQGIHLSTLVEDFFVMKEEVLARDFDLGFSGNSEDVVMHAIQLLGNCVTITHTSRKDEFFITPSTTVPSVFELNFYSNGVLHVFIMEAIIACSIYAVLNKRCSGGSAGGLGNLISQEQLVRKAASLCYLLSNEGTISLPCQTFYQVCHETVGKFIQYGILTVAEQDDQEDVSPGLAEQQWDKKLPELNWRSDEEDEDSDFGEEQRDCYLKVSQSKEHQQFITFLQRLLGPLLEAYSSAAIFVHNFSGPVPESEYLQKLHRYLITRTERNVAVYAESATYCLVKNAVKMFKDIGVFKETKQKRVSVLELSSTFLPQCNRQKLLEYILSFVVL", "assay": "In vitro mtGPAT inhibition: acylation of 14C-glycerol 3-phosphate with palmitoyl-CoA, scintillation counting", "type": "biochemical", "settings": "Table 2, sulfonamides 15a-i and 17a-f; triplicate; read-out: IC50 (μM) ± SD, In Vitro Anti-mtGPAT1 Activity", "protocol": "The compounds produced as described above were evaluated for their ability to inhibit the acylation of glycerol-3-phosphate in vitro. The acylation reaction between ^14C-labelled glycerol-3-phosphate and palmitoyl-CoA, initiated by adding mtGPAT, was measured in the presence of varying concentrations of the inhibitor by scintillation counting as described in more detail below.\nA mitochondrial preparation of glycerol 3-phosphate acyltransferase was added to the incubation mixture containing ^14C-labeled glycerol 3-phosphate, palmitoyl-CoA, and varying inhibitor concentrations to initiate the reaction. After ten min, the reaction was terminated by adding chloroform, methanol, and 1% perchloric acid. Five minutes later, more chloroform and perchloric acid were added, and the upper aqueous layer was removed. After washing three times with 1% perchloric acid, the organic layer was evaporated under nitrogen, and the amount of ^14C present was counted to determine the extent of reaction inhibition. Data points were recorded in triplicate, and IC50 values were calculated based on the amount of test inhibitor necessary to produce 50% of mtGPAT activity observed in the absence of inhibitor but in the presence of DMSO vehicle control."}, "DIO mice [2]": {"tested_on": "DIO mice", "assay": "5-day dose ranging study in DIO mice", "type": "in vivo, mouse", "settings": "5 days", "protocol": "To determine the dose of FSG67 suitable for chronic treatment, we performed a 5-day dose ranging study in DIO mice, four per group, with daily intraperitoneal doses of 1, 2, and 5 mg/kg (FIG. 17). The 5 mg/kg dose led to significant weight loss of 3.9% compared to vehicle controls (p=0.008, 2-way ANOVA). This dose was chosen for the subsequent chronic treatment experiments."}, "lean mice": {"tested_on": "lean mice", "assay": "Conditioned taste aversion, two-bottle choice", "type": "in vivo, mouse", "settings": "5 mg/kg or 20 mg/kg ip, listed as FSG67", "protocol": "Conditioned taste aversion. Ten days before testing, eighteen male C57/BL6 mice were placed on a schedule of 2 h daytime access to water. On the test day, mice were divided into three groups and were given access to 0.15% sodium saccharin rather than water for 30 min. Immediately after saccharin access, mice were injected ip with RPMI vehicle or FSG67 (5 and 20 mg/kg body wt) and were allowed water access for the remaining 90 min. Twenty-four hours later, mice were given 2h access to a two-bottle choice test of 0.15% saccharin vs. water. Intakes of both solutions were recorded, and data were expressed as saccharin preference (100× saccharin intake/saccharin intake+water intake).\nGPAT inhibition with FSG67 decreased body weight in DIO mice consuming a high fat diet. FSG67 treated DIO mice lost 4.3±0.5% (1.7±0.2 g) of body mass versus a 5.3±0.4% (2.1±0.2 g) loss for fasted mice (FIG. 11c). Compared to the vehicle control mice which lost 2.5±0.6% (1.0±0.2 g) the weight loss was significant in both the FSG67 treated (p=0.026, 2-tailed t-test) and fasted mice (p=0.002, 2-tailed t-test). […] Thus, the reduction in food intake from FSG67 was not due to sickness behavior (FIG. 11e)."}}, "note": "“Also recorded” adds a separate entry of the source.", "data": [{"smiles": "CCCCCCCCCS(=O)(=O)Nc1ccccc1C(=O)O", "note": "[Compound 15g, 2-(Nonylsulfonamido)benzoic acid]", "values": [{"measurement": "liver histology: inflammation, necrosis, hepatocellular injury", "setting": "DIO mice [1]", "result": "No inflammation, necrosis, or hepatocellular injury"}, {"measurement": "reduction in serum triglyceride levels vs pair-fed or vehicle", "setting": "DIO mice [1]", "result": "not statistically significant"}, {"measurement": "serum glucose", "setting": "DIO mice [1]; 5 mg/kg ip daily", "result": "153.3 ± 10.5", "unit": "mg/dL"}, {"measurement": "serum triglyceride", "setting": "DIO mice [1]; 5 mg/kg ip daily", "result": "111.3 ± 10.9", "unit": "mg/dL"}, {"measurement": "hepatic steatosis (Oil red O liver sections)", "setting": "DIO mice [1]; listed as FSG67", "result": "nearly complete resolution; also recorded: almost complete amelioration of fat accumulation"}, {"measurement": "serum cholesterol levels", "setting": "DIO mice [1]; listed as FSG67", "result": "unchanged; also recorded: unaffected"}, {"measurement": "IC50", "setting": "mtGPAT1", "result": 8.1, "unit": "µM"}, {"measurement": "weight loss compared to vehicle controls", "setting": "DIO mice [2]; 5 mg/kg ip daily", "result": 3.9, "unit": "%"}, {"measurement": "minimum dose that led to significant weight loss", "setting": "DIO mice [2]; daily ip, doses 1, 2, 5 mg/kg", "result": 5, "unit": "mg/kg"}, {"measurement": "conditioned taste aversion (saccharin intake)", "setting": "lean mice", "result": "failed to produce a significant reduction in saccharin intake; also recorded: did not induce conditioned tasted aversion"}]}]}
